Assay results: publication PMC6143478, “Lipophilic activated ester prodrug approach for drug delivery to the intestinal lymphatic system” (Journal of Controlled Release, 2018)
Read-outs that look alike come from different tables or passages of the source.

What was measured:
[1] = Plasma pharmacokinetics following intravenous administration in rats; format: in vivo; details: i.v., dose equivalent to 2.5 mg/kg BEX, rat; in words
Method: The protocols for pharmacokinetic and biodistribution experiments in this study were reviewed and approved by the University of Nottingham Ethical Review Committee in accordance with the Animals [Scientific Procedures] Act 1986. Male Sprague Dawley rats (Charles River Laboratories, UK) weighing 350–380 g were used. The animals were housed in the Bio Support Unit, University of Nottingham. Continuous lymph collection was performed according to a protocol approved by the Institutional Animal Care and Use Committee at Rutgers, The State University of New Jersey. Male Sprague Dawley rats (Envigo, Inc., NJ, USA) weighing 300–350 g were used for the continuous lymph collection. […]
Jugular vein cannulation surgery procedures were conducted under general anaesthesia for blood sampling. […] Blood samples of 250 μL volume were collected from the cannula at pre-determined time points following administration. […]
The HPLC-UV system consisting of a separation module (Waters Alliance 2695) equipped with a UV detector (Waters 996) was used for analysis. […] BEX and its prodrugs were detected at 259 nm and RA and its prodrugs at 357 nm.
Assessment of statistical significance of differences between two groups was conducted by means of two-tailed unpaired t-test. Statistical significance among three or more groups was assessed by means of a one-way ANOVA followed by Tukey's multiple comparisons test. […]

[2] = Biodistribution to mesenteric lymph nodes (MLN) and lymph following oral administration in rats; format: in vivo; details: dose equivalent to 10 mg/kg BEX, rat; for Kp: male, Sprague Dawley, intact prodrug
Method: The protocols for pharmacokinetic and biodistribution experiments in this study were reviewed and approved by the University of Nottingham Ethical Review Committee in accordance with the Animals [Scientific Procedures] Act 1986. Male Sprague Dawley rats (Charles River Laboratories, UK) weighing 350–380 g were used. The animals were housed in the Bio Support Unit, University of Nottingham. Continuous lymph collection was performed according to a protocol approved by the Institutional Animal Care and Use Committee at Rutgers, The State University of New Jersey. Male Sprague Dawley rats (Envigo, Inc., NJ, USA) weighing 300–350 g were used for the continuous lymph collection. Animals were allowed free access to food and water and were acclimatised for at least 6 days prior to any procedures at both institutions in a controlled-temperature environment with 12 h light/dark cycles.
Formulations were prepared as described in the above pharmacokinetic study and were delivered by an oral gavage. Animals were euthanised at pre-determined time points. Blood was collected from the posterior vena cava and lymph samples were taken from the mesenteric lymph duct. MLNs were dissected and collected as previously described. The MLNs were isolated from surrounding tissue with care not to compromise the integrity of the lymph nodes. The MLNs were homogenised (POLYTRON® PT 10–35 GT, Kinematica AG, Luzern, Switzerland) with 10 mg/mL NaF in water (1,2, w/v) on an ice bath prior to sample preparation for HPLC analysis.
A combination of protein precipitation and liquid-liquid extraction was applied to samples prior to HPLC injection. To 100 μL sample, 300 μL of acetonitrile was added for protein precipitation and then 300 μL of pH modifier was added when necessary (Supplementary Material Table S2). […] The organic layer was separated and evaporated under N2 gas. Reconstitution solvent (100 μL) was used as detailed in Supplementary Material Table S2 and 40 μL was injected into the HPLC-UV system. […] Therefore, storage and preparation of all samples were performed within the time frame and conditions of confirmed stability.
The HPLC-UV system consisting of a separation module (Waters Alliance 2695) equipped with a UV detector (Waters 996) was used for analysis. Samples in the autosampler were maintained at 4 °C and the column at 40 °C. The stationary and mobile phases were used as specified in Supplementary Material Table S2. BEX and its prodrugs were detected at 259 nm and RA and its prodrugs at 357 nm.

Question: Which results are given for `C=C(c1ccc(C(=O)OCC)cc1)c1cc2c(cc1C)C(C)(C)CCC2(C)C` [prodrug 2]?
Answer: conversion of prodrug to BEX in plasma in vivo [1]: rapidly converted to BEX; concentrations of BEX in intestinal lymphatics (MLNs, lymph) relative to plasma ([2]; BEX analyte, in words): comparable between the three matrices; Kp ([2]; mesenteric lymph / plasma, read-out: concentration of prodrug in lymph compared to plasma): 41; Kp ([2]; mesenteric lymph nodes (MLN) / plasma, read-out: concentration of prodrug in MLNs compared to plasma): 6
